Data reported in patent US20120252045A1, “METHOD OF ASSESSING ISLET FUNCTION” (priority 2009, published 2012).
Like-named read-outs stand apart in the source and are kept apart here.

How the values were obtained:
β-TC6 cells = conditions: n=4
Description: (§1) Porcine islet OCRs were assessed in triplicate aliquots of 1000 IEQ. Controls comprising media alone and heat-killed islets (1000 IEQ ×3 incubated for 1 hour at 60° C.) were assayed in parallel. OCRs were measured using a fiber optic sensor oxygen monitoring system (Instech Laboratories Plymouth Meeting, Pa.), which quantifies the decrease in oxygen partial pressure (pO2) over time, as described by Papas et al., “A Stirred Microchamber for Oxygen Consumption Rate Measurements with Pancreatic Islet Cells,” Biotechnol Bioeng 2007; 98: 1071-1082. OCRs were standardized to the amount of DNA in each chamber (nmol/min-mgDNA), which was determined using a Quant-iT PicoGreen dsDNA kit (Molecular Probes, Eugene, Oreg.).
Reductions in OCR were assessed by comparing the effect of the NaAz on the OCR measurements to the OCR capability of non-treated cells. BTC6 cells and Hela cells were incubated on 150 mm culture dishes for 2 days in a 37° C. incubator with a 5% CO2 environment. The cells were then removed using 5 mM EDTA/PBS and washed once with PBS. The resulting cell pellet was resuspended in 5 mL of DMEM (Sigma) supplemented with 5% FCS (Sigma) and Penicillin/Streptomycin (Invitrogen). Cells were then incubated with various concentrations (0.01, 0.1, 1.0 and 10 mg/ml) of sodium azide (Sigma) for 10 minutes prior to measuring their oxygen consumption rates.

adult porcine islets = conditions: vs non-NaAz treated cells
Description: as §1
The experiment was repeated 3 times.

In the case of `[N-]=[N+]=[N-]` [NaAz, sodium azide], the “reduction in OCR” value (β-TC6 cells; β-TC6 cells incubated with 0.1 mg/ml NaAz for 10 minutes) is reported as 29.8±4.5%, the “reduction in OCR” value (β-TC6 cells; β-TC6 cells incubated with 1 mg/ml NaAz for 10 minutes) is reported as 71.2±6.6% and the “reduction in OCR” value (β-TC6 cells; β-TC6 cells incubated with 10 mg/ml NaAz for 10 minutes) is reported as 85.9±2.3%. The “reduction in OCR” value (adult porcine islets; islets incubated with 0.1 mg/ml NaAz for 10 minutes) was 37.6%, the “reduction in OCR” value (adult porcine islets; islets incubated with 1 mg/ml NaAz for 10 minutes) was 59.7% and the “reduction in OCR” value (adult porcine islets; islets incubated with 10 mg/ml NaAz for 10 minutes) was 84.2%.
